Source: patent US7998965B2, “Glutamate aggrecanase inhibitors” (Wyeth LLC, priority 2005, dated 2011)
Like-named read-outs stand apart in the source and are kept apart here.

What was measured:
[1] = target: T1, purified recombinant human Aggrecanase-1 (rAgg1) (Homo sapiens, UniProt O75173); experiment: In vitro fluorescence screen for Aggrecanase-1 inhibitors; format: biochemical; conditions: for IC50: read-out: Agg1 IC50
T1 sequence (O75173 213-837): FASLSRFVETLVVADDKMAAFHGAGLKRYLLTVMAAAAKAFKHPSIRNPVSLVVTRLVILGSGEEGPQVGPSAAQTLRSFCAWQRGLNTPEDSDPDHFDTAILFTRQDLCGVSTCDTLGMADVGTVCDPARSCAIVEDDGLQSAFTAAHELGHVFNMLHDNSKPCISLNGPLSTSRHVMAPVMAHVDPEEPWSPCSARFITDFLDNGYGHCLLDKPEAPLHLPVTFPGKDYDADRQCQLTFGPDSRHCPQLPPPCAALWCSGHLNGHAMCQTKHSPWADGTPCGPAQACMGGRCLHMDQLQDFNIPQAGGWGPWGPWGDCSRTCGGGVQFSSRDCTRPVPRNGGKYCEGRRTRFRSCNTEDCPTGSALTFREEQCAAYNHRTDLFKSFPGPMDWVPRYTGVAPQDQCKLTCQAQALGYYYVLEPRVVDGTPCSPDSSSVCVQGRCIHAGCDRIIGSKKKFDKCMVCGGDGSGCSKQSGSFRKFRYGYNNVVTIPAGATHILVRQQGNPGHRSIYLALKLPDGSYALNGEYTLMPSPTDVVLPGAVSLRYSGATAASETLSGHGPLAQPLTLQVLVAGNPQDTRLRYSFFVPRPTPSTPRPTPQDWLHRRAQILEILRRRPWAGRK

[2] = target: T2, purified recombinant human Aggrecanase-2 (Ag2t-Phe628-Strep) (Homo sapiens, UniProt Q9UNA0); experiment: In vitro fluorescence screen for Aggrecanase-2 inhibitors; format: biochemical; conditions: for IC50: read-out: Agg 2 IC50
T2 construct: the form used is denoted as Ag2t-Phe628-Strep (MW=41,737)
T2 sequence (Q9UNA0 262-628): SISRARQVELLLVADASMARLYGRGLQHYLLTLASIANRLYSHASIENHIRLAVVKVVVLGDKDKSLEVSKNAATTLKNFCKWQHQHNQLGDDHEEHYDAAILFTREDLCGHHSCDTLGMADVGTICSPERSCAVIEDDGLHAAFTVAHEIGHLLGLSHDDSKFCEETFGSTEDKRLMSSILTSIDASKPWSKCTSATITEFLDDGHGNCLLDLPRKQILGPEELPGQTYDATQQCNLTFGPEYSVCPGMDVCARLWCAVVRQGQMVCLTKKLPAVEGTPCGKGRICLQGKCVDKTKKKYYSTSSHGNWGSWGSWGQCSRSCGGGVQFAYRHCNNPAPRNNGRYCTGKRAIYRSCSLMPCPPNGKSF

With `O=C(O)CC[C@H](NC(=O)c1ccc2c(c1)Cc1ccccc1-2)C(=O)NC12CC3CC(CC(C3)C1)C2` [Example 8AAAAA, N^1-1-adamantyl-N^2-(9H-fluoren-2-ylcarbonyl)-L-α-glutamine] the IC50 ([1]; Table 2) was 372 nM and the IC50 ([2]; Table 2) was 410 nM.

Molecule `O=C(O)CC[C@H](NC(=O)c1ccc(-c2ccccc2)cc1)C(=O)NCC12CC3CC(CC(C3)C1)C2` [Example 8AAAAAA, N-(1-adamantylmethyl)-N^2-(biphenyl-4-ylcarbonyl)-L-α-glutamine] has an IC50 ([1]; Table 2) of 534 nM and an IC50 ([2]; Table 2) of 1760 nM.

Work on `CC(C)(Cc1ccc(Cl)cc1)NC(=O)[C@H](CCC(=O)O)NC(=O)c1ccc(-c2ccc(F)cc2F)cc1` [Example 8AAAAAAA, N-[2-(4-chlorophenyl)-1,1-dimethylethyl]-N^2-[(2′,4′-difluorobiphenyl-4-yl)carbonyl]-L-α-glutamine] yielded an IC50 ([1]; Table 3) of 80 nM and an IC50 ([2]; Table 3) of 550 nM.

For `O=C(O)CC[C@H](NC(=O)C1c2ccccc2-c2ccccc21)C(=O)NC12CC3CC(CC(C3)C1)C2` [Example 8BBBBB, N^1-1-adamantyl-N^2-(9H-fluoren-9-ylcarbonyl)-L-α-glutamine], the IC50 ([1]; Table 2) was greater than 17000 nM and the IC50 ([2]; Table 2) was 20900 nM.

`O=C(O)CC[C@H](NC(=O)c1ccc2c(c1)Cc1ccccc1-2)C(=O)N[C@H](CO)Cc1ccccc1` [Example 8BBBBBB, N-[(1S)-1-benzyl-2-hydroxyethyl]-N^2-(9H-fluoren-2-ylcarbonyl)-L-α-glutamine] gave an IC50 ([1]; Table 2) of 470 nM and an IC50 ([2]; Table 2) of 2670 nM.

In the case of `CC(C)(Cc1ccc(Cl)cc1)NC(=O)[C@H](CCC(=O)O)NC(=O)c1ccc(-c2cc(F)ccc2F)cc1` [Example 8BBBBBBB, N-[2-(4-chlorophenyl)-1,1-dimethylethyl]-N^2-[(2′,5′-difluorobiphenyl-4-yl)carbonyl]-L-α-glutamine], the IC50 ([1]; Table 3) is reported as 110 nM and the IC50 ([2]; Table 3) is reported as 1000 nM.

For `CC(C)(Cc1ccc(F)cc1)NC(=O)[C@H](CCC(=O)O)NC(=O)c1ccc(-c2ccc3c(c2)OCC3)cc1` [Example 8BBBBBBBB, N^2-[4-(2,3-dihydro-1-benzofuran-6-yl)benzoyl]-N-[2-(4-fluorophenyl)-1,1-dimethylethyl]-L-α-glutamine], the IC50 ([1]; Table 3) was 300 nM and the IC50 ([2]; Table 3) was 200 to 600 nM.

For `CC(C)(Cc1ccc(F)cc1)NC(=O)[C@H](CCC(=O)O)NC(=O)c1ccc(-c2cccs2)s1` [Example 8BBBBBBBBB, N^2-(2,2′-bithien-5-ylcarbonyl)-N-[2-(4-fluorophenyl)-1,1-dimethylethyl]-L-α-glutamine], the IC50 ([1]; Table 3) was less than 30 nM, the Ki ([1]; Table 3, read-out: Ki Agg1) was 11.5 nM and the IC50 ([2]; Table 3) was 100 to 300 nM. It also gave a Ki ([2]; Table 3, read-out: Ki Agg2) of 681 nM.

`CC(C)(Cc1ccccc1)NC(=O)[C@H](CCC(=O)O)NC(=O)c1sccc1-c1ccccc1` [Example 8BBBBBBBBBB, N-(1,1-dimethyl-2-phenylethyl)-N^2-[(3-phenyl-2-thienyl)carbonyl]-L-α-glutamine] was tested, and the IC50 ([1]; Table 3) was 22000 nM and the IC50 ([2]; Table 3) was greater than 200000 nM.

For `CN(CCc1ccccc1)C(=O)[C@H](CCC(=O)O)NC(=O)c1ccc(-c2ccccc2)cc1` [Example 8CCCCCC, N^2-(biphenyl-4-ylcarbonyl)-N-methyl-N-(2-phenylethyl)-L-α-glutamine], the IC50 ([1]; Table 2) was 2400 nM and the IC50 ([2]; Table 2) was greater than 22000 nM.

For `CC(C)(Cc1ccc(Cl)cc1)NC(=O)[C@H](CCC(=O)O)NC(=O)c1ccc(-c2c(F)cccc2F)cc1` [Example 8CCCCCCC, N-[2-(4-chlorophenyl)-1,1-dimethylethyl]-N^2-[(2′,6′-difluorobiphenyl-4-yl)carbonyl]-L-α-glutamine], the IC50 ([1]; Table 3) was 50 nM and the IC50 ([2]; Table 3) was 680 nM.

`Cc1cccc(CNC(=O)[C@H](CCC(=O)O)NC(=O)c2ccc3c(c2)C(=O)c2ccccc2-3)c1` [Example 8DDDDD, N^1-(3-methylbenzyl)-N^2-[(9-oxo-9H-fluoren-2-yl)carbonyl]-L-α-glutamine] gave an IC50 ([1]; Table 2) of 315 nM and an IC50 ([2]; Table 2) of 1100 nM.

Work on `CN(CCc1ccccc1)C(=O)[C@H](CCC(=O)O)NC(=O)c1ccc2c(c1)Cc1ccccc1-2` [Example 8DDDDDD, N^2-(9H-fluoren-2-ylcarbonyl)-N-methyl-N-(2-phenylethyl)-L-α-glutamine] yielded an IC50 ([1]; Table 2) of 2400 nM and an IC50 ([2]; Table 2) greater than 22000 nM.

`CC(C)(Cc1ccc(Cl)cc1)NC(=O)[C@H](CCC(=O)O)NC(=O)c1ccc(-c2cc(F)cc(F)c2)cc1` [Example 8DDDDDDD, N-[2-(4-chlorophenyl)-1,1-dimethylethyl]-N^2-[(3′,5′-difluorobiphenyl-4-yl)carbonyl]-L-α-glutamine] was tested, and the IC50 ([1]; Table 3) was less than 30 nM and the IC50 ([2]; Table 3) was 220 nM.

`Cc1cccc(CNC(=O)[C@H](CCC(=O)O)NC(=O)C2c3ccccc3-c3ccccc32)c1` [Example 8EEEEE, N^2-(9H-fluoren-9-ylcarbonyl)-N^1-(3-methylbenzyl)-L-α-glutamine] was tested, and the IC50 ([1]; Table 2) was greater than 50000 nM and the IC50 ([2]; Table 2) was greater than 200000 nM.

`CC(C)(Cc1ccc(Cl)cc1)NC(=O)[C@H](CCC(=O)O)NC(=O)c1ccc(-c2cccc(F)c2F)cc1` [Example 8EEEEEEE, N-[2-(4-chlorophenyl)-1,1-dimethylethyl]-N^2-[(2′,3′-difluorobiphenyl-4-yl)carbonyl]-L-α-glutamine] gave an IC50 ([1]; Table 3) of 37 nM and an IC50 ([2]; Table 3) of 510 nM.

With `O=C(O)CC[C@H](NC(=O)c1ccc(-c2ccccc2)cc1)C(=O)NCCc1ccccc1` [Example 8FFF, N^2-(1,1′-biphenyl-4-ylcarbonyl)-N^1-(2-phenylethyl)-L-α-glutamine] the IC50 ([1]; Table 1) was 200 nM and the IC50 ([2]; Table 1) was 1000 nM.

`CCCCN(C)C(=O)[C@H](CCC(=O)O)NC(=O)c1ccc2c(c1)Cc1ccccc1-2` [Example 8FFFFFF, N-butyl-N^2-(9H-fluoren-2-ylcarbonyl)-N-methyl-L-α-glutamine] was tested, and the IC50 ([1]; Table 2) was 3900 nM and the IC50 ([2]; Table 2) was 18100 nM.

`CC(C)(Cc1ccccc1)NC(=O)[C@H](CCC(=O)O)NC(=O)c1ccc(-c2cncnc2)cc1` [Example 8FFFFFFF, N-(1,1-dimethyl-2-phenylethyl)-N^2-(4-pyrimidin-5-ylbenzoyl)-L-α-glutamine] showed an IC50 ([1]; Table 3) of 200 nM and an IC50 ([2]; Table 3) of 4200 nM.

In the case of `CC(C)(Cc1ccccc1)NC(=O)[C@H](CCC(=O)O)NC(=O)c1ccc(-c2ccc(F)c(F)c2)cc1` [Example 8GGGGGGG, N^2-[(3′,4′-difluorobiphenyl-4-yl)carbonyl]-N-(1,1-dimethyl-2-phenylethyl)-L-α-glutamine], the IC50 ([1]; Table 3) is reported as 60 nM and the IC50 ([2]; Table 3) is reported as 160 nM.

`CC(C)(Cc1ccc(F)cc1)NC(=O)[C@H](CCC(=O)O)NC(=O)c1ccc(-c2ccc3c(c2)OCO3)cc1` [Example 8HHHHHH, N^2-[4-(1,3-benzodioxol-5-yl)benzoyl]-N-[2-(4-fluorophenyl)-1,1-dimethylethyl]-L-α-glutamine] was tested, and the IC50 ([1]; Table 2) was 38 nM and the IC50 ([2]; Table 2) was 46 nM.

With `CC(C)(Cc1ccccc1)NC(=O)[C@H](CCC(=O)O)NC(=O)c1ccc(-c2cc(F)cc(F)c2)cc1` [Example 8HHHHHHH, N^2-[(3′,5′-difluorobiphenyl-4-yl)carbonyl]-N-(1,1-dimethyl-2-phenylethyl)-L-α-glutamine] the IC50 ([1]; Table 3) was 50 nM and the IC50 ([2]; Table 3) was 180 nM.

In the case of `O=C(O)CC[C@H](NC(=O)c1ccc2c(c1)C(=O)c1ccccc1-2)C(=O)NCc1ccccc1` [Example 8IIIII, N^1-benzyl-N^2-[(9-oxo-9H-fluoren-2-yl)carbonyl]-L-α-glutamine], the IC50 ([1]; Table 2) is reported as 813 nM and the IC50 ([2]; Table 2) is reported as 1900 nM.

`COc1ccc(CCN(C)C(=O)[C@H](CCC(=O)O)NC(=O)c2ccc3c(c2)Cc2ccccc2-3)cc1OC` [Example 8IIIIII, N-[2-(3,4-dimethoxyphenyl)ethyl]-N^2-(9H-fluoren-2-ylcarbonyl)-N-methyl-L-α-glutamine] gave an IC50 ([1]; Table 2) of 2900 nM and an IC50 ([2]; Table 2) of 11900 nM.
